Assay results: patent US20220117912A1, “L-PIPECOLIC ACID COCRYSTAL OF CANNABIDIOL” (EBERS TECH INC., priority 2019, published 2022)

How the values were obtained:
[1] = Visual water solubility test of the cocrystal (0.6 mg in 3 mL water, shaken and sonicated); assay type: physicochemical
Method: 0.6 mg of the cocrystal was placed in a glass vial and 3 mL of water was added. The slurry was immediately shaken and sonicated.

[2] = Exposure to relative humidity (RH) stress, XRPD afterwards; assay type: physicochemical; conditions: 95% RH for 8 days
Excerpt: X-Ray Powder Diffraction (XRPD): The Rigaku Smart-Lab X-ray diffraction system was configured for reflection Bragg-Brentano geometry using a line source X-ray beam. The x-ray source is a Cu Long Fine Focus tube that was operated at 40 kV and 44 ma. That source provides an incident beam profile at the sample that changes from a narrow line at high angles to a broad rectangle at low angles. Beam conditioning slits are used on the line X-ray source to ensure that the maximum beam size is less than 10 mm both along the line and normal to the line. The Bragg-Brentano geometry is a para-focusing geometry controlled by passive divergence and receiving slits with the sample itself acting as the focusing component for the optics. The inherent resolution of Bragg-Brentano geometry is governed in part by the diffractometer radius and the width of the receiving slit used. Typically, the Rigaku Smart-Lab is operated to give peak widths of 0.1° 2θ or less. The axial divergence of the X-ray beam is controlled by 5.0-degree Soller slits in both the incident and diffracted beam paths. […] Each sample was analyzed from 2 to 40° 2θ using a continuous scan of 6° 2θ per minute with an effective step size of 0.02° 2θ. In the case of high resolution XRPD, samples were analyzed with a scan rate of 1° 2θ per minute with a sample spin rate of 50 rpm. […]

## C=C(C)[C@@H]1CCC(C)=C[C@H]1c1c(O)cc(CCCCC)cc1O.O=C(O)[C@@H]1CCCCN1 [1:1 cannabidiol:L-pipecolic acid cocrystal]
[1]; 0.6 mg of cocrystal in 3 mL of water, shaken and sonicated
  Visual dissolution in water: none of the solid dissolved
[1]; water
  Water solubility: less than 0.2 mg/mL
[2]
  Solid-form stability under humidity stress (XRPD pattern after stress): cocrystal disassociated during the experiment
